Source: US4038222A, “Untriakontapeptide with opiate activity” (Hoffman-La Roche Inc., priority 1976, dated 1977)
Entries after “also recorded” stand apart in the source; their conditions may differ. No end group written: not given here.

What was measured:
[1] = test system: opiate receptor, guinea pig brain membranes; experiment: Opiate agonist activity by receptor binding assay (method of Simon et al.), inhibition of stereospecific binding; conditions: for Response: percentage of inhibition of stereospecific binding: mean ± standard error from 4 determinations
Experimental: The opiate agonist activity of natural beta-endophine was determined by the method of Simon et al., Proc. Nat. Acad. Sci. 70, 1947 (1973) using guinea pig brain membranes. The results obtained are summarized below in Table 4:
^a Percentage of inhibition of stereospecific binding.
Mean ± standard error from 4 determinations.

[2] = pentapeptide isolated from pig brains; cited from earlier work
rabbit fat cells = experiment: Lipolytic activity in rabbit fat cells (procedure of Li et al.), glycerol production; format: cell-based; conditions: for Response: glycerol production: triplicate, mean ± standard error
From the text: The lypolytic activity of natural beta-endorphin was compared to the activity of ovine beta-lipotropin hormone in rabbit fat cells using the procedure of Li et al., Arch. Biochem. Biophys. 169, 669 (1975).
^a Micromole of glycerol production per gram of cells per hour.
Determinations in triplicate. Values in mean ± standard error.

For `Oc1ccc2c3c1O[C@H]1[C@@H](O)C=C[C@H]4[C@@H](C2)NCC[C@@]341` [Normorphine, reference compound], the “Response: percentage of inhibition of stereospecific binding” value ([1]; dose 0.7 x 10^-7 M) was 28 ± 0.8% and the “Response: percentage of inhibition of stereospecific binding” value ([1]; dose 7.0 x 10^-7 M) was 70 ± 0.9%.

In the case of “H-Tyr-Gly-Gly-Phe-Met-OH- (H-YGGFM-OH) [pentapeptide isolated from pig brains by Hughes et al]”, the “Opiate agonist activity (in words)” value [2] is given as “exhibits opiate agonist activity”.

In the case of “YGGFMTSEKSQTPLVTLFKNAIIKNAHKKGQ [beta-endorphin]”, the “Lipolytic activity in comparison to the complete hormone (in words)” value (rabbit fat cells; compared with beta-lipotropin hormone) is reported as “very low”, the “Response: glycerol production” value (rabbit fat cells; dose 1.1 (unit not given)) is reported as 0.66 ± 0.28 Micromole of glycerol producti and the “Response: glycerol production” value (rabbit fat cells; dose 10.0 (unit not given)) is reported as 1.42 ± 0.37 Micromole of glycerol producti. The “Opiate agonist activity (in words)” value [1] was “potent opiate agonist activity; also recorded: significant opiate agonist activity”, the “Relative potency to normorphine” value ([1]; 95% confidence limit of 300-392, λ = 0.044) was 342% and the “Response: percentage of inhibition of stereospecific binding” value ([1]; dose 1.0 x 10^-7 M) was 60 ± 0.7%. The “Response: percentage of inhibition of stereospecific binding” value ([1]; dose 10.0 x 10^-7 M) was 83 ± 0.2% and the “Potency relative to normorphine on a molar basis” value ([1]; molar basis) was 3.42 times.
